Paper PMC9629855, “Development of ASIC1a ligand-gated ion channel drug screening assays across multiple automated patch clamp platforms” (Frontiers in Molecular Neuroscience, 2022)
Where “and” joins values, the source holds several entries; their conditions need not be identical. Identical values can stand only once. Like-named read-outs stand apart in the source and are kept apart here.

Key:
[1] = biological target: T1, hASIC1a (Homo sapiens, UniProt P78348); set-up: host or cells: CHO; conditions: ref Leng et al., 2016; read-out: Literature IC50; cited from earlier work
T1 sequence (P78348 1-528): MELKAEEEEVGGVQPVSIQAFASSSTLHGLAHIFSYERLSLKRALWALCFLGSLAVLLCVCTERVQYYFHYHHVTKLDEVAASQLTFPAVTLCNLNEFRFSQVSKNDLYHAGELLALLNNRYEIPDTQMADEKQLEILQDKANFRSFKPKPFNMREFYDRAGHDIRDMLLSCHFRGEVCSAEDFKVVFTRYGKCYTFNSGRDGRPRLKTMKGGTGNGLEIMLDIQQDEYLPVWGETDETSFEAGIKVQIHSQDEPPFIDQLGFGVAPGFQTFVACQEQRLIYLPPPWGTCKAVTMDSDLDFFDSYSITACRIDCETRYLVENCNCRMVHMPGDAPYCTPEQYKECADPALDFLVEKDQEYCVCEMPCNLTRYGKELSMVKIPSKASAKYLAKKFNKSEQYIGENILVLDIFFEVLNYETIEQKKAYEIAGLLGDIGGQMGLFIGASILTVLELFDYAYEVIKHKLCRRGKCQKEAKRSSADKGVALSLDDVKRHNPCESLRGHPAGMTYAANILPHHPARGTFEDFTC

[2] = biological target: T1, hASIC1a; assay: Patchliner APC, CHO ASIC1a currents, stacked tip application, voltage clamp; format: cell-based; set-up: host or cells: CHO; conditions: cumulative application, pH 6.5, stacked tip, single hole
Method: CHO cells were cultured according to vendor instructions (B-SYS GmbH) and harvested using optimized protocols before transfer of the cell suspension to the automated cell hotel on the Patchliner where cells are stored at RT (∼20°C) in a small Teflon vessel and repetitively aspirated every 30 s using a 1 ml plastic pipette tip to prevent aggregation. The cell hotel parameters can be adjusted (interval, speed and volume of aspiration) depending on the cell type to maintain viability for 2–3 h. Cell sealing was conducted in the presence of elevated divalent cations and lowered Na^+, which were washed off after whole-cell access was achieved and replaced with external solution while cells were voltage clamped at a holding potential of −60 mV. […]
Concentration-response xC50 curves from Patchliner and QPatch 48 experiments were calculated by plotting %inhibition (antagonists) or activation (pH) data against concentration in Prism software (GraphPad), using the variable sigmoidal dose-response function to fit the Hill equation with theoretical minimum block of 0% and maximum block of 100% and a free constant for Hill slope. […]

[3] = system: ENaC channels; set-up: method as in Canessa et al., 1994; conditions: ref Canessa et al., 1994; cited from earlier work
[4] = system: endogenous pH-gated responses in HEK cells; set-up: method as in Gunthorpe et al. (2001); conditions: manual patch clamp, ref Gunthorpe et al. (2001), read-out: affinity for inhibition of endogenous pH-gated responses; cited from earlier work
[5] = system: endogenous proton-activated currents in HEK cells; assay: cells; format: cell-based, human; conditions: for IC50: pH 6.5 activation, QPatch 48, read-out: mean IC50
Method: CHO hASIC1a cells were cultured according to vendor instructions (B-SYS GmbH) and HEK cells using standard in-house methods. Both cell lines were harvested using optimized protocols and re-suspended in serum-free media (Gibco CHO-S-SFM from Thermo Fisher Scientific for CHO cells, and Ex-Cell 302 from Merck Sigma-Aldrich for HEK cells) to obtain a suspension of cells with smooth membranes and little debris, before transfer to the automated cell hotel consisting of a 60 ml plastic container (Sophion SB2050) and a magnetic stir bar to prevent cell clumping. An aliquot of cells is then aspirated into a 1 ml microcentrifuge tube and spun down (typically 150 g for 2.5 min) and the supernatant discarded before a user-defined volume of external solution is added by the robot and the cells re-suspended to achieve the desired final cell suspension density before application to primed QPlates. Cell capture, sealing and whole-cell access was achieved using optimized QPatch protocols before currents were recorded using a holding potential of −60 mV. […] Cells were washed three times with external pH 7.3 solution (5 μl) between applications of activating acidic solution to establish a stable ASIC1a current baseline. […] Each concentration of reference compound was applied to each cell before (i.e., during each pH 7.3 application period) and during each pH stimulus (IC50 mode). Thus, each concentration of test compound was pre-incubated with cells for at least 2 min before, and then during each acidic solution challenge, before wash-off in a neutral pH 7.3 solution that contained the next concentration of the same compound. Cells were allowed at least 2 min between applications of acidic solution to enable ASIC1a receptors to recover from desensitization.
Concentration-response xC50 curves from Patchliner and QPatch 48 experiments were calculated by plotting %inhibition (antagonists) or activation (pH) data against concentration in Prism software (GraphPad), using the variable sigmoidal dose-response function to fit the Hill equation with theoretical minimum block of 0% and maximum block of 100% and a free constant for Hill slope. Inward current amplitudes were compared to the response to a control pH application (typically pH 6.5) prior to antagonist application or excitation by solutions of different pH to enable calculation of %inhibition or %activation for each cell.
To quickly confirm a previous publication that HEK cells express endogenous ASIC1a receptor channels and assess the suitability of this cell system for drug discovery screening on APC platforms, we utilized the medium throughput QPatch 48 device. The QPatch uses 48 well microfluidic planar borosilicate chips and coated titanium pipette tips to make whole-cell recordings and sequentially apply small liquid volumes to enable rapid activation followed by slower deactivation (wash-off) of ligand-gated ionotropic responses. HEK cells were voltage-clamped at −60 mV and maintained in external solution at pH 7.4 to avoid steady-state desensitization of ASIC1 receptor channels. Cells were stimulated by external solutions with pH values ranging between 7.0 and 5.5 that evoked rapidly activating inward currents, followed by wash-off in pH 7.4 solution.

Structure (SMILES) | IC50 [1] [µM] | IC50 [2] [µM] | sensitivity of ENaC channels to inhibition [3] [nM] | IC50 [4] [nM] | IC50 ([5]; HEK cells) | IC50 ([5]; Homo sapiens, HEK293, pH 6.5, HEK cells) [nM] | inhibition at 0.3 µM ([5]; Homo sapiens, HEK293, read-out: inhibition of pH-evoked current (some cells)) [%]
NC(=NCc1ccccc1)NC(=O)c1nc(Cl)c(N)nc1N [Benzamil] | 3.5 | 3.65 | – | – | – | – | –
N=C(N)NC(=O)c1nc(Cl)c(N)nc1N [Amiloride] | – | – | 100 | 2200 | 2000 to 3000 nM and 2800 nM | 2820 | ~25
